The target of this test is T1, AfAglB (AglB-L, A. fulgidus oligosaccharyltransferase) (Archaeoglobus fulgidus, UniProt O29867, G617C).
T1 construct: gene aglB3; full length 868 residues; E. coli C43(DE3); C-terminal His10 cut by thrombin leaving ELALVPR; single-subunit membrane protein in DDM, then LCP
In words: X-ray crystal structure (LCP), […] Å. In kind it is binding. Conditions: ternary complex with disulfide-tethered peptide TAMRA-APY(Dab)VTASCR and Mn2+; pH 6.0; LLO donor site; from hydrolysis of native LLO mixture (C55 and C60) during crystallization, modelled as C60.

This note sets out measurements from article PMC8342417, “The structure of an archaeal oligosaccharyltransferase provides insight into the strict exclusion of proline from the N-glycosylation sequon” (Communications Biology, 2021).

T1 sequence (O29867 whole entry G617C): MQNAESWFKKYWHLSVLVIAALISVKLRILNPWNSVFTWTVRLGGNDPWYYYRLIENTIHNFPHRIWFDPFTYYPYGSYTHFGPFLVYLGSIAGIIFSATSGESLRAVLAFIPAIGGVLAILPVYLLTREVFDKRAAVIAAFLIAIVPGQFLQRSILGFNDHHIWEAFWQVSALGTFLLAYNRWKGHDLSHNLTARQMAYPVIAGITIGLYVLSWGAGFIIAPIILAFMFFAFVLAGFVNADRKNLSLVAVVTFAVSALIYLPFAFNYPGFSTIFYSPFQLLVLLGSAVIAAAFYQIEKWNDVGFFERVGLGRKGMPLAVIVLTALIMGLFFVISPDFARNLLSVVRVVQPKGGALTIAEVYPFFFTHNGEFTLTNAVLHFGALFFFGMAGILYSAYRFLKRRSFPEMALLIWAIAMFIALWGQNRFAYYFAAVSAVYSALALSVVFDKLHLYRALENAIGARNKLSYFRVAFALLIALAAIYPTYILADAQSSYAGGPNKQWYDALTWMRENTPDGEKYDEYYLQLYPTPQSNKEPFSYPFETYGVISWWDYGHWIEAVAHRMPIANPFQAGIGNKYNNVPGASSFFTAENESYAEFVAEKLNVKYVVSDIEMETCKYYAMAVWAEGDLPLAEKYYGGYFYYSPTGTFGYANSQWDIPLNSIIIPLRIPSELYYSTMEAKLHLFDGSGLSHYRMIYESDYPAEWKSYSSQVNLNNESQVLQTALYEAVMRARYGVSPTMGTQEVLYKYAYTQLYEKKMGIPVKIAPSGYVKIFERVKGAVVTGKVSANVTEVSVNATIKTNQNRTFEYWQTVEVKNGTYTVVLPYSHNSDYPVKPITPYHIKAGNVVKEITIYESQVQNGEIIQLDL

For the compound `C/C(=C/CC/C(C)=C\CC/C(C)=C\CC/C(C)=C/CC/C(C)=C\CC/C(C)=C\CC[C@H](C)CCOP(=O)(O)O)CC/C=C(/C)CC/C=C(/C)CCCC(C)CCCC(C)CCCC(C)C` (stereo partly shown) [dolichol-phosphate], the “X-ray crystal structure (LCP), 2.7 Å” value is listed as “LLO binding site was occupied by a dolichol-phosphate, instead of an intact LLO”.
